Source: patent US20030091533A1, “Regulation of mononuclear phagocyte stimulation” (priority 2001, published 2003)
Marks after values point to notes of the source that are not given here.

B1: IFN-γ: Interferon gamma, primes mononuclear phagocytes, 200 U/ml (protein, UniProt P01579 24-161, looked up)
Interferon gamma: QDPYVKEAENLKKYFNAGHSDVADNGTLFLGILKNWKEESDRKIMQSQIVSFYFKLFKNFKDDQSIQKSVETIKEDMNVKFFNSNKKKRDDFEKLTNYSVTDLNVQRKAIHELIQVMAELSPAAKTGKRKRSQMLFRG

Legend:
Format in all cases: cell-based, human
TLR4 = TLR4 surface expression on PBM by FACS; conditions: for TLR4 expression (MFI): PBM preincubated 24 hour, 20 ng/ml IL-9 or IL-4, 200 U/ml IFN-γ, means±SD, medium 73 ± 2; for TLR4 expression on the surface of PBM compared with medium alone: preincubated for 24 hour
Description: Table 2. Cells (0.2×10^6) were preincubated for 24 hour with cytokines (20 ng/ml for IL-9 or IL-4 and 200 U/ml for IFN-γ), before the assessment of LPS receptor expression by immunostaining using anti-human CD14 mAb conjugated to FITC and anti-human TLR4 rabbit Ab followed by mouse anti-rabbit IgG (MAR-FITC). Cell-associated fluorescence was evaluated by FACS and expressed as mean fluorescence intensity (MFI). Autofluorescence of PBM was negligible (MFI: 3±1). Data are means±SD (n=3), and are representative of two experiments. *P<0.05 compared with cells preincubated with medium.
Additional stainings for CD14 and Toll-like receptor (TLR)-4 were performed on PBM preincubated for 24 hour with cytokines, using respectively FITC-conjugated anti-CD14 mAb (clone MøP9, mIgG2b, Becton Dickinson) and anti-TLR4 rabbit Ab (Santa Cruz, Calif.) followed by F (ab′)2 fragments of mouse anti-rabbit IgG (MAR)-FITC.

PMA-stimulated PBM = assay: Extracellular O2- release, SOD-inhibitable reduction of ferricytochrome c; conditions: for effect on the basal oxidative burst: incubation for 24 hour, PBM without stimulation
Description: Extracellular release of O2-derived radicals was evaluated by the SOD-inhibitable reduction of ferricytochrome c, as previously described (Pick, Methods in Enzymology, 132:407-421 (1986)) as described infra.
Extracellular release of O2-derived radicals was evaluated by the SOD-inhibitable reduction of ferricytochrome c, as previously described (Pick, Methods in Enzymology, 132:407-421 (1986)). Briefly, after incubation with IL-9 and IL-4 (20 ng/ml) for 1 hour, 4 hour 24 hour and 96 hour, cells were washed three times in Hank's balanced salt solution without phenol red (HBSS) to remove the phenol red-containing medium and incubated at 37° C. with HBSS containing 160 μM ferricytochrome c (plus 300 IU/ml SOD as control for each condition), and concomittantly with 100 ng/ml PMA when indicated. Optical density (OD) at 550 nm was then recorded in a plate spectrometer (Titertek Multiscan Plus MKII, Labsystems, Finland) after 60 min. The released amount of superoxide anion (O2^−) was deduced from the absorbance values at 550 nm (after subtraction of control values with SOD) using the cytochrome c extinction coefficient of 21×10^3 M^−1 cm^−1 (See Massey, Biochim Biophys Acta, 34: 255(1959)). Results were expressed as nmoles O2^− per 10^6 cells per hour (FIG. 1).

LPS-stimulated PBM = assay: TGF-β1 release by ELISA, PBM; conditions: for potentiation of TGF-β1 production by LPS-stimulated PBM: preincubated 24 hour
Description: (§1) FIG. 6 depicts the effect of IL-9, IL-4 and IFN-γ on the release of IL-10 (A) and TGF-β1 (B) by LPS-stimulated PBM and AM cultured under the same conditions as described in FIG. 5 Example I. D. TGF-β1 was determined by ELISA in crude supernatants (untreated supernatants) and in ethanol-acid (acid-treated) supernatants, using a kit from Biosource for determining TGF-β1 release from its latent complexes. An ELISA kit from CLB (Amsterdam, The Netherlands) was used to determine IL-10 following the manufacturer's protocol. […] Data are means±SEM (n=3). *P<0.05 compared with unstimulated cells; **P<0.05 compared with cells preincubated with medium.
Cells (1×10^6 PBM or 0.5×10^6 AM/well) were distributed in 24-well plates (Falcon), preincubated in cRPMI for 24 hours at 37° C., 5% CO2 with cytokines (IL-9, IL-4 (20 ng/ml) and IFN-γ (200 U/ml)) and stimulated for 20 hours with 1 μg/ml LPS without removing cytokines. Supernatants were harvested and frozen at −20° C. until cytokine titration. Release of TNF-α was quantified by a cytotoxicity bioassay using WEHI 164 cells clone 13, as previously described (Espevik and Nissen-Meyer, J. Immunol. Methods, 95:99-105 (1986) incorporated herein by reference), using rhTNF-α from Boehringer as a standard. IL-8, IL-10 and TGF-β1 concentrations were determined by ELISA. A kit from CLB (Amsterdam, The Netherlands) was used for IL-10 quantitation, following the manufacturer's protocol. A kit from Biosource allowed to determine TGF-β1 after the release from its latent complexes by a treatment of supernatants with ethanol acid (‘acid-treated supernatants’); TGF-P 1 was also assessed in crude supernatants (‘untreated supernatants’). To assay for IL-8, 96-well plates were coated overnight at 4° C. with 4 μg/ml anti-hIL-8 mAb (Sigma, clone 6217.11) in 100 mM sodium carbonate buffer (pH 9.6). After washings in PBS containing 0.1% v/v Tween 20 and blocking for 1 hour at 37° C. with 1% w/v BSA in the same buffer, rhIL-8 standards (Biosource International) and supernatants were incubated for 2 hour at 37° C. Plates were then incubated with 20 ng/ml biotinylated polyclonal anti-hIL-8 Ab (R§D Systems) in blocking buffer and, after washings, with HRP-conjugated streptavidin (Sigma). The reaction was then developed in 0.03% v/v H2O2 substrate and 0.42 mM 3,3′,5,5′-tetramethylbenzidine as chromogen in 100 mM sodium acetate/citric acid buffer (pH 4.9), stopped with 2 M H2SO4, and read in a plate spectrometer at 450 nm. The sensitivity of the TNF-α bioassay was 0.2 pg/ml, and that of IL-8, IL-10, and TGF-β1 immunoassays 10 pg/ml, 2 pg/ml, and 2 pg/ml, respectively. All supernatants were assayed in duplicate.

LPS-stimulated AM [1] = assay: IL-8 release by ELISA, AM; conditions: preincubated 24 hour, LPS 20 hour
Description: PBM and AM obtained as described infra (1×10^6 PBM, 0.5×10^6 AM) were preincubated for 24 hour with cytokines, IL-4, IL-9 (20 ng/ml) and IFN-γ (200 U/ml) before the stimulation by LPS (1 μg/ml) for 20 h. Supernatants were harvested and frozen at −20° C. until cytokine titration. TNF-α release was determined in supernatants by a cytotoxic bioassay using WEHI 164 clone 13 target cells (Espevik and Nissen-Meyer, J. Immunol. Methods, 95:99-105 (1986) (incorporated herein by reference)), while IL-8 was quantitated in the same supernatants by ELISA. FIG. 5 depicts the effects of IL-9, IL-4, and IFN-γ on the release of TNFα (A) and IL-8 (B) by LPS-stimulated PBM and AM. […]
(§2) Cells (1×10^6 PBM or 0.5×10^6 AM/well) were distributed in 24-well plates (Falcon), preincubated in cRPMI for 24 hours at 37° C., 5% CO2 with cytokines (IL-9, IL-4 (20 ng/ml) and IFN-γ (200 U/ml)) and stimulated for 20 hours with 1 μg/ml LPS without removing cytokines. […] Release of TNF-α was quantified by a cytotoxicity bioassay using WEHI 164 cells clone 13, as previously described (Espevik and Nissen-Meyer, J. Immunol. Methods, 95:99-105 (1986) incorporated herein by reference), using rhTNF-α from Boehringer as a standard. IL-8, IL-10 and TGF-β1 concentrations were determined by ELISA. A kit from CLB (Amsterdam, The Netherlands) was used for IL-10 quantitation, following the manufacturer's protocol. […]

LPS-stimulated AM [2] = assay: IL-10 release by ELISA, AM; conditions: preincubated 24 hour, LPS 20 h
Description: as §1, §2

Molecule | TLR4 expression (MFI) (TLR4) | TLR4 expression on the surface of PBM compared with medium alone (TLR4) | effect on O2^− release by PMA-stimulated PBM (PMA-stimulated PBM; 24 hour of preincubation) | effect on O2^− release by PMA-stimulated PBM (PMA-stimulated PBM; 96 hour of preincubation) | effect on the basal oxidative burst (PMA-stimulated PBM) | potentiation of TGF-β1 production by LPS-stimulated PBM (LPS-stimulated PBM; LPS 20 h) | effect on IL-8 release by LPS-stimulated AM (LPS-stimulated AM [1]) | O2^− release by PMA-stimulated PBM (PMA-stimulated PBM; preincubation 24 hour, 20 ng/ml, PMA 100 ng/ml, medium-preincubated cells 40.1±2.5) | effect on O2^− release by PMA-stimulated PBM (PMA-stimulated PBM; shorter preincubation periods (1 hour, 4 hour)) | production of TGF-β1 by LPS-stimulated PBM (LPS-stimulated PBM; acid-treated supernatants, preincubated 24 hour 20 ng/ml, LPS 20 h, medium-preincubated 586±64) [pg/mL] | modulation of TGF-β1 in unstimulated PBM (LPS-stimulated PBM; without LPS) | IL-10 release by LPS-stimulated AM (LPS-stimulated AM [2])
IL-4: Th2 cytokine interleukin-4 used as comparator, 20 ng/ml | 58 ± 1* MFI | down regulated | same inhibitory effect | significantly increased | little effect | not observed |  |  |  |  |  | 
IL-9: Human IL-9 purified from SF9 insect cell cultures infected with recombinant baculovirus | 71 ± 4 MFI | not significantly different |  | not further increased | little effect |  | no significant modulation | 23.2±0.8 nmoles 02-per 10^6 cells. h^−1 | not significant | 1687 ± 94 | no modulation | 
B1 | 82 ± 2* MFI | increased | slightly up regulated |  |  | not observed | no significant modulation |  |  |  |  | decreased
